From publication PMC4178217, “Quinoline 3-sulfonamides inhibit lactate dehydrogenase A and reverse aerobic glycolysis in cancer cells” (Cancer & Metabolism, 2013)

Experiments:
[1] = molecular target: recombinant human LDHA (Homo sapiens, UniProt P00338); assay: recombinant human LDHA enzyme assay (lactate to pyruvate, NADH via diaphorase/resazurin)
[2] = tested on: Snu398 cells; assay: Compound cellular permeability assay, whole-cell extract; format: in vitro ADME, human; conditions: Snu398 treated with 1 μM for 1.5 h
Description: Compound cellular permeability assays For cytosolic permeability assay, twelve million Snu398 cells were allowed to attach overnight and treated with DMSO control or 1 µM Compound 2 for 1.5 h in 1.7 mM glucose medium. The medium was removed, cells were washed in phosphate-buffered saline (PBS), and cytosolic extracts were prepared by solubilization in Qproteome lysis buffer (Qiagen, Valencia, CA). For whole-cell permeability assay, 75,000 Snu398 cells/well were plated in 96-well plates and treated with DMSO control or 1 µM compounds for 1.5h in low glucose medium. The medium was removed, cells were washed in PBS and solubilized in 50:50 mixture of methanol and acetonitrile. Compound concentration in the cytosolic or whole-cell extract was determined by LC/MS/MS analysis. An Acquity UPLC system (Waters Inc., Milford, MA) was coupled to an API 4000 or API 5000 triple-quad mass spectrometer (Applied Biosystems). […] Compound concentration in cells was determined by counting the number of cells in sample wells and assuming 3 pL/cell volume.

[3] = molecular target: recombinant human LDHB (Homo sapiens, UniProt P07195); assay: recombinant human LDHB enzyme assay (lactate to pyruvate, NADH via diaphorase/resazurin)
Sequence of recombinant human LDHB (P07195 whole entry): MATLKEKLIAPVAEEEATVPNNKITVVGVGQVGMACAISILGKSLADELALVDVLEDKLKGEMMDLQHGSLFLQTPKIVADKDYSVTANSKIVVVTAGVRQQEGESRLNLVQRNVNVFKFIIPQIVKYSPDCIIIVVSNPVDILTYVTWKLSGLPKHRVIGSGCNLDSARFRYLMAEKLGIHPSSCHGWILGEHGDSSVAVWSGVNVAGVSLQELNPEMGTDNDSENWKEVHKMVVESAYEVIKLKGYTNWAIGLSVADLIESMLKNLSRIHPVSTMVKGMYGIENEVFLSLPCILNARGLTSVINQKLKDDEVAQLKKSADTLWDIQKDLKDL

[4] = tested on: Snu398 cells; assay: Lactate production assay, Snu398 (RapidFire-MS)

| mode of LDHA inhibition [1] | IC50 [3] [nM] | EC50 ([4]; Homo sapiens, SNU-398, read-out: lactate production EC50) [µM] | IC50 [1] [µM] | SMILES | apparent intracellular concentration versus medium [2] | effect on cellular lactate production ([4]; Snu398) |
| --- | --- | --- | --- | --- | --- | --- |
| NADH-competitive LDHA inhibitor | – | – | – | COc1cc2c(Nc3cccc(C(=O)O)c3)c(C(N)=O)cnc2cc1-c1c(C)noc1C | – | – |
| – | 55 ± 9 | 3.3 ± 1.3 | – | COc1ncc(-c2ccc3c(Nc4cc(Oc5ccc(F)cc5)cc(S(N)(=O)=O)c4)c(S(=O)(=O)NC4CC4)cnc3c2)c(OC)n1 [Compound 3] | higher apparent intracellular concentrations than that of the medium | – |
| – | > 50000 | – | > 50 | COc1ncc(-c2ccc3c(Nc4cc(Oc5ccc(F)cc5)cc(C(F)(F)F)c4)c(S(=O)(=O)NC4CC4)cnc3c2)c(OC)n1 [Compound 4] | – | does not affect cellular lactate |
